How the values were obtained:
[1] = molecular target: T1, human recombinant 15-PGDH (Homo sapiens, UniProt P15428); assay: Recombinant 15-PGDH enzymatic inhibition assay (PGDH-Lumi, NADH signal); assay type: biochemical; conditions: recombinant 15-PGDH; 15 min pre-incubation, 60 min reaction with PGE2 and NAD+, NADH signal
T1 sequence (P15428 1-266): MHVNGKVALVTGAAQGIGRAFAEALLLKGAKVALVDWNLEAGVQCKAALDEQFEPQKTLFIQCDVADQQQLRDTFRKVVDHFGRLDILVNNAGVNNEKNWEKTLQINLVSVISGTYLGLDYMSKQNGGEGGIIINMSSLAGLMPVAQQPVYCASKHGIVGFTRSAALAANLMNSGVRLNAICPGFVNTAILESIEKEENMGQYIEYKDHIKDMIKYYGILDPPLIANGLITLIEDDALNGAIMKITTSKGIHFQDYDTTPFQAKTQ
Method in brief: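 Buffer 50 mM Tris pH 7.5 with 0.01% Tween-20 and […]; compound, 22 two-fold dilutions, pre-incubated with enzyme 15 min before substrate.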

[2] = test system: DSS-induced colitis in C57BL/6 female mice; assay: In vivo mouse DSS study - colon length; conditions: for Colon length Mean: oral gavage, day 10; for Recovery % (vs vehicle) / Reduction % (vs naïve): colon length
Procedure: In this study, 12-week-old C57BL/6 female mice (Taconic, the Cambridge City) were supplemented with 2.5% DSS (MP Biomedicals, MW 36,000-50,000) in drinking water for days 0-7, and then switched to normal drinking water beginning on day 7 and continued through day 10. Mice were treated once/twice daily by oral gavage with different compounds of Formula (A) (e.g., B15S, B15R, B30R, or B41R) in different dosing levels or with vehicle solution of 2% HPMC, 1% Tween 80 (w/v) in DI water starting on day 0. Mice were sacrificed on day 10 for assessment of colon length. The DSS-induced model of colitis is a widely used animal model for studying the pathogenesis of and potential treatments for UC, which is a primary form of IBD. DSS water intake causes colonic mucosa injury and erosion, gland loss, and infiltration of proinflammatory immune cells in the colon tissue, followed by mucosal repair and tissue remodeling. This is manifested by a shortened colon, the degree of which correlates well with the severity of mucosal injury in this mouse model of DSS-induced experimental colitis.

15-PGDH in A549 cells = molecular target: T2, 15-PGDH in A549 cells (Homo sapiens, UniProt P15428); assay: A549 cellular 15-PGDH assay (PGE2 accumulation, HTRF); assay type: cell-based; conditions: interleukin-stimulated, inhibitor 24 hrs, PGE2 by competitive HTRF, read-out: A549 Cell Assay IC50
T2 construct: endogenous in cells; host or cells: A549
T2 sequence (P15428 1-266): T1 sequence (P15428 1-266)
Method in brief: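 Supernatant PGE2 was quantified by competitive HTRF, in which sample PGE2 blocks FRET between a europium cryptate-labelled antibody and labelled PGE2. It came from A549 epithelial cells induced with IL-13. IC50s were calculated from the inversely proportional signal.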

[3] = test system: DSS-induced colitis in C57BL/6 mice; assay: In vivo mouse DSS study - histopathological analysis of colon; conditions: all doses evaluated, versus DSS + vehicle
Procedure: Histopathological analysis was performed on the […] mice from the DSS study described above. Analysis was performed on mice from the B15R, B30R, or B41R groups. Briefly, mouse colon tissues were collected at necropsy, flushed with PBS, manipulated intact into individual modified Swiss rolls, placed into separate tissue cassettes and fixed for approximately 24 hours by immersion in 10% neutral buffered formalin followed by transfer to […]. Fixed tissues were routinely processed, paraffin-embedded, sectioned, mounted on glass slides and hematoxylin and eosin stained. Glass slides were scanned and digital images were accessed for histopathology evaluation. Prior to histopathology assessment, metadata for all digital images reviewed was exported from a digital pathology platform database into an Excel spreadsheet, followed by assignment of each digital image with a random number (greater than 0 and less than 1) using the RAND function in Excel. From smallest to largest random number assigned, each digital image was retrieved for evaluation using only the RTLIMS Inventory Code as the unique identifier for each digital image. Each digital image was individually reviewed without knowledge of treatment group (blinded/masked evaluation), and with the slide label image hidden when viewing digital images. […] Scoring of tissues for DSS-induced colitis was performed using a scoring system and criteria modified and adapted from BolderBioPATH, Inc./Inotiv. Ordinal data (histopathology scores) were analyzed using a non-parametric Kruskal-Wallis one-way analysis of variance test followed by a Dunn's multiple comparison test (GraphPad Prism).
The following scoring systems were used to provide histological scores: […]

IC50 [1]: 0.401 nM | IC50 (15-PGDH in A549 cells): 0.561 nM
Compound: Cn1cc2cc(-c3ccc4cc([C@H](O)C5CCOCC5)sc4n3)cnc2n1 (single isomer, unassigned) [Compound B15R]
Colon length Mean ([2]; 0.625 mpk, BID): 7.6 cm | Colon length Mean ([2]; 1.25 mpk, QD): 7.84 cm | Colon length Mean ([2]; 2.5 mpk, BID): 8.09 cm | Colon length Mean ([2]; 5 mpk, QD): 7.89 cm | Recovery % (vs vehicle) ([2]; 0.625 mpk, BID): 42.29% | Reduction % (vs naïve) ([2]; 0.625 mpk, BID): 14.97% | Recovery % (vs vehicle) ([2]; 1.25 mpk, QD): 57.64% | Reduction % (vs naïve) ([2]; 1.25 mpk, QD): 12.28% | Recovery % (vs vehicle) ([2]; 2.5 mpk, BID): 63.43% | Reduction % (vs naïve) ([2]; 2.5 mpk, BID): 8.09% | Recovery % (vs vehicle) ([2]; 5 mpk, QD): 54.80% | Reduction % (vs naïve) ([2]; 5 mpk, QD): 11.72% | colon length comparing to vehicle group ([2]; different doses daily): significant improvement of colon length | erosion scores [3]: decreased severity | gland loss scores [3]: decreased severity | inflammation scores [3]: decreased severity | sum of histopathology scores [3]: decreased severity

From US20240409557A1, “5,6-FUSED AND 6,6-FUSED BICYCLIC ALCOHOLS AND ETHERS AND COMPOSITIONS FOR USE AS 15-PROSTAGLANDIN DEHYDROGENASE MODULATORS” (AMGEN INC., priority 2023, published 2024)
